According to patent US11566007B2, “Ras inhibitors” (Revolution Medicines, Inc., priority 2019, dated 2023):

Legend:
KRAS G12D = KRAS G12D (Homo sapiens (Human), UniProt P01116+P62937, G12D); assay: Ras-Raf (BRAF RBD) disruption / FRET / MOA assay, KRAS G12D; format: biochemical; settings: Ras-Raf disruption/FRET/MOA assay; class symbols; read-out: KRAS G12D FRET data IC50
In short: (§1)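 Compound-driven ternary complex of nucleotide-loaded Ras with cyclophilin A, disrupting BRAF RBD binding. 10-point 3-fold dilution from 30 μM final, 3 h at 25° C, then anti-His Eu-W1024 (10 nM) and anti-GST allophycocyanin (50 nM) for 1.5 h. IC50 from TR-FRET ratio decrease versus DMSO.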

KRAS G13D = KRAS G13D (Homo sapiens (Human), UniProt P01116+P62937, G13D); assay: Ras-Raf (BRAF RBD) disruption / FRET / MOA assay, KRAS G13D; format: biochemical; settings: read-out: IC50* KRAS G13D FRET data
In short: as §1

[1] = tested on: NCI-H358 cells (K-Ras G12C); assay: Potency assay: pERK in NCI-H358 cells; format: cell-based, human; settings: Homo sapiens, NCI-H358; H358 KRAS G12C; read-out: pERK EC50
In short: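 Compounds are dosed as ten 3-fold dilutions from a 10 mM DMSO stock, in duplicate, and left on cells for 4 h at 37 °C, 5% CO2. Phospho-ERK1/2 is then quantified by AlphaLISA SureFire Ultra or In-Cell Western, and IC50 is derived from a 4-parameter sigmoid against log concentration.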

NRAS Q61R = NRAS Q61R (Homo sapiens (Human), UniProt P01111+P62937, Q61R); assay: Ras-Raf (BRAF RBD) disruption / FRET / MOA assay, NRAS Q61R; format: biochemical; settings: NRAS Q61R; Ras-Raf disruption/FRET/MOA assay; read-out: IC50* NRAS Q61R FRET data
In short: (§2)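 Compounds (30 μM top final, 10-point 3-fold dilutions) incubated 3 h at 25° C with nucleotide-loaded Ras, cyclophilin A and BRAF RBD. Detection with 10 nM anti-His Eu-W1024 and 50 nM anti-GST allophycocyanin over another 1.5 h. Lowered TR-FRET ratio relative to DMSO wells gives IC50.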

KRAS Q61H = KRAS Q61H (Homo sapiens (Human), UniProt P01116+P62937, Q61H); assay: Ras-Raf (BRAF RBD) disruption / FRET / MOA assay, KRAS Q61H; format: biochemical; settings: Ras-Raf disruption/FRET/MOA assay; class symbols; read-out: KRAS Q61H FRET data IC50
In short: as §2

KRAS G12S = KRAS G12S (Homo sapiens (Human), UniProt P01116+P62937, G12S); assay: Ras-Raf (BRAF RBD) disruption / FRET / MOA assay, KRAS G12S; format: biochemical; settings: Ras-Raf disruption/FRET/MOA assay; class symbols; read-out: KRAS G12S FRET data IC50
In short: as §1

Chain of KRAS G12D (P01116-2 other isoform, or with tags, fused parts or gaps G12D): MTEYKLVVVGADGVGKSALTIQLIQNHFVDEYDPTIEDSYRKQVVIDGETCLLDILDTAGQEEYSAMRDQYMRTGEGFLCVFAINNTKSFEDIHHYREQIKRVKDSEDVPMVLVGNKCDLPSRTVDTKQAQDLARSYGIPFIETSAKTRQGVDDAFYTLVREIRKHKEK
Chain of KRAS G12D (P62937 whole entry): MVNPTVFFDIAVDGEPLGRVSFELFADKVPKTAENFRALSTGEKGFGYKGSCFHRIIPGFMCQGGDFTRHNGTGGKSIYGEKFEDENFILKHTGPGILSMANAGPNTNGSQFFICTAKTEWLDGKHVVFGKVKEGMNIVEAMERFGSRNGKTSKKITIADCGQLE
Chain of KRAS G13D (P01116-2 other isoform, or with tags, fused parts or gaps G13D): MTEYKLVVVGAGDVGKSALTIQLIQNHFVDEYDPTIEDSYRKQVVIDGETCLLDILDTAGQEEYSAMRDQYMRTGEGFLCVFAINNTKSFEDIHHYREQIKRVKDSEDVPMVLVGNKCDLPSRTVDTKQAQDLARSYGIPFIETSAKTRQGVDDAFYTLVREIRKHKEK
Chain of KRAS G13D (P62937 whole entry): as the sequence (P62937 whole entry) above
Chain of KRAS G12S (P01116-2 other isoform, or with tags, fused parts or gaps G12S): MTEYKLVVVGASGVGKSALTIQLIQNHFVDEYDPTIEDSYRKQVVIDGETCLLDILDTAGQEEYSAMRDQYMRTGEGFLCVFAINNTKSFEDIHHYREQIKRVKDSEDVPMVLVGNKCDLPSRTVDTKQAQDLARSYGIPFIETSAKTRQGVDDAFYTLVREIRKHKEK
Chain of KRAS G12S (P62937 whole entry): as the sequence (P62937 whole entry) above
Chain of NRAS Q61R (P01111 whole entry Q61R): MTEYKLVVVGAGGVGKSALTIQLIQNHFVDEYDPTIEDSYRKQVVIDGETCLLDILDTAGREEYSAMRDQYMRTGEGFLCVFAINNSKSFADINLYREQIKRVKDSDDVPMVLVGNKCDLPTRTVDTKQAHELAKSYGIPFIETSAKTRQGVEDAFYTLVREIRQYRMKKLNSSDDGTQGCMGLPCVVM
Chain of NRAS Q61R (P62937 whole entry): as the sequence (P62937 whole entry) above
Chain of KRAS Q61H (P01116-2 other isoform, or with tags, fused parts or gaps Q61H): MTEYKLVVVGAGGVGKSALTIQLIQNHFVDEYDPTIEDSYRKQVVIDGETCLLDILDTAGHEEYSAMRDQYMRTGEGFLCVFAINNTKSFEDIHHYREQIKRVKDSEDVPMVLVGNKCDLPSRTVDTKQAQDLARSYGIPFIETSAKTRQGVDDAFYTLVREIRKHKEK
Chain of KRAS Q61H (P62937 whole entry): as the sequence (P62937 whole entry) above

Structure (SMILES)	IC50 (KRAS G12D)	IC50 (KRAS G13D)	EC50 [1]	IC50 (NRAS Q61R)	IC50 (KRAS Q61H)	IC50 (KRAS G12S)
C=CC(=O)N1CC[C@H](C(=O)N(C)[C@H](C(=O)N[C@H]2CC3=NC=C(O3)c3ccc4c(c3)c(c(-c3cccnc3[C@H](C)OC)n4CC)CC(C)(C)COC(=O)[C@@H]3CCCN(N3)C2=O)C(C)C)C1 (atropisomer, axis not shown) [Example A278]	> 10000 nM	1000 to 10000 nM	< 5000 nM	> 10000 nM	1000 to 10000 nM	1000 to 10000 nM
CCn1c(-c2cccnc2[C@H](C)OC)c2c3cc(ccc31)-c1cccc(c1)C[C@H](NC(=O)[C@H](C(C)C)N(C)C(=O)[C@H]1CCN(C(=O)C#CC(C)(C)N(C)C)C1)C(=O)N1CCC[C@H](N1)C(=O)OCC(C)(C)C2 (atropisomer, axis not shown) [Example A290]	> 10000 nM	1000 to 10000 nM	< 5000 nM	1000 to 10000 nM	1000 to 10000 nM	1000 to 10000 nM
C=CS(=O)(=O)N1CCC2(CCN([C@H](C(=O)N[C@H]3Cc4cc(O)cc(c4)-c4ccc5c(c4)c(c(-c4cccnc4[C@H](C)OC)n5CC)CC(C)(C)COC(=O)[C@@H]4CCCN(N4)C3=O)C(C)C)C2=O)CC1 (atropisomer, axis not shown) [Example A299]	1000 to 10000 nM	100 to 1000 nM	< 5000 nM	100 to 1000 nM	< 10 nM	10 to 100 nM
CO[C@@H](C)c1ncccc1-c1c2c3cc(ccc3n1CC(F)(F)F)-c1csc(n1)C[C@H](NC(=O)[C@@H](COC1CN(C(=O)C#CC(C)(C)N(C)C)C1)C(C)C)C(=O)N1CCC[C@H](N1)C(=O)OCC(C)(C)C2 (atropisomer, axis not shown) [Example A343]	> 10000 nM	> 10000 nM	< 5000 nM	1000 to 10000 nM	1000 to 10000 nM	1000 to 10000 nM
C=CC(=O)N1CC[C@H](C(=O)N(C)[C@H](C(=O)N[C@H]2Cc3cc(cc(C(F)F)c3)-c3ccc4c(c3)c(c(-c3cc(N5CCN(C)CC5)cnc3[C@H](C)OC)n4CC(F)(F)F)CC(C)(C)COC(=O)[C@@H]3CCCN(N3)C2=O)C(C)C)C1 (atropisomer, axis not shown) [Example A357]	1000 to 10000 nM	100 to 1000 nM	< 5000 nM	100 to 1000 nM	100 to 1000 nM	100 to 1000 nM
CO[C@@H](C)c1ncccc1-c1c2c3cc(ccc3n1CC(F)(F)F)-c1cccc(c1)C[C@H](NC(=O)[C@@H](COC1CN(C(=O)C#CC(C)(C)N(C)C)C1)C(C)C)C(=O)N1CCC[C@H](N1)C(=O)OCC(C)(C)C2 (atropisomer, axis not shown) [Example A376]	> 10000 nM	> 10000 nM	< 5000 nM	> 10000 nM	1000 to 10000 nM	1000 to 10000 nM
C=CC(=O)N1C[C@H](C)N(C(=O)N(C)[C@H](C(=O)N[C@H]2Cc3nc(cs3)-c3ccc4c(c3)c(c(-c3cccnc3[C@H](C)OC)n4CC)CC(C)(C)COC(=O)[C@@H]3CCCN(N3)C2=O)C(C)C)C[C@@H]1C (atropisomer, axis not shown) [Example A385]	100 to 1000 nM	100 to 1000 nM	< 5000 nM	10 to 100 nM	10 to 100 nM	10 to 100 nM
C=CC(=O)N1CCC12CN(C(=O)N(C)[C@H](C(=O)N[C@H]1Cc3nc(cs3)-c3ccc4c(c3)c(c(-c3cccnc3[C@H](C)OC)n4CC)CC(C)(C)COC(=O)[C@@H]3CCCN(N3)C1=O)C(C)C)C2 (atropisomer, axis not shown) [Example A393]	1000 to 10000 nM	1000 to 10000 nM	< 5000 nM	100 to 1000 nM	100 to 1000 nM	100 to 1000 nM
CCn1c(-c2cccnc2[C@H](C)OC)c2c3cc(ccc31)-c1cc(F)cc(c1)C[C@H](NC(=O)[C@@H](COC1CN(C(=O)C#CC(C)(C)N(C)C)C1)C(C)C)C(=O)N1CCC[C@H](N1)C(=O)OCC(C)(C)C2 (atropisomer, axis not shown) [Example A403]	> 10000 nM	> 10000 nM	< 5000 nM	> 10000 nM	1000 to 10000 nM	> 10000 nM
